The nature of data set [1]: Compound stability in human liver microsomes. The settings on record: for half-life at 5 μM: human liver microsomes 0.5 mg protein/mL, compound 5 μM, NADPH 1.0 mM, pH 7.4, 37° C., read-out: Human T1/2; for CLint scaled at 5 μM: liver microsomes, pH 7.4, in vivo CLint extrapolated from human liver microsome incubation. Format: in vitro ADME. The procedure: (§1) The LC/MS/MS system used in the analysis consists of an Agilent 1200 Series vacuum degasser, binary pump, well-plate autosampler, thermostatted column compartment, the Agilent G6430 Triple Quadrupole Mass Spectrometer with an electrosprayionization (ESI) source. Quantitative analysis was carried out using MRM mode. The parameters for MRM transitions are in the Table A.
(§2) An Agilent XDB-C18, 2.1×30 mm, 3.5 μM column was used for the analysis. 5 μL of the samples were injected. Analysis condition: The mobile phase was 0.1% formic acid in water (A) and 0.1% formic acid in methanol (B). The flow rate was 0.4 mL/min. And the gradient of Mobile phase was in the Table B.
(§3) Alternatively, an Agilent 6330 series LC/MS/MS spectrometer equipped with G1312A binary pumps, a G1367A autosampler and a G1314C UV detector were used in the analysis. An ESI source was used on the LC/MS/MS spectrometer. The analysis was done in positive ion mode as appropriate and the MRM transition for each analyte was optimized using standard solution. A Capcell MP-C18 100×4.6 mm I.D., 5 uM column (Phenomenex, Torrance, Calif., USA) was used during the analysis. The mobile phase was 5 mM ammonia acetate, 0.1% MeOH in water (A): 5 mM ammonia acetate, 0.1% MeOH in acetonitrile (B) (70/30, v/v). The flow rate was 0.6 mL/min. Column was maintained at ambient temperature. 20 μL of the samples were injected.
(§4) Human or rat liver microsomes incubations were conducted in duplicate in polypropylene tubes. The typical incubation mixtures consisted of human or rat liver microsomes (0.5 mg protein/mL), compounds of interest (5 μM) and NADPH (1.0 mM) in a total volume of 200 μL potassium phosphate buffer (PBS, 100 mM, pH 7.4). Compounds were dissolved in DMSO and diluted with PBS such that the final concentration of DMSO was 0.05%. The enzymatic reactions were commenced with the addition of […] after a 3-min preincubation and incubated in a water bath open to the air at 37° C. Reactions were terminated at various time points (0, 5, 10, 15, 30, 60 min) by adding equal volume of ice-cold acetonitrile. The samples were stored at […] until LC/MS/MS assays.
(§5) The concentrations of compounds in the incubation mixtures of human or rat liver microsomes were determined by a LC/MS/MS method. The ranges of the linearity in the concentration range were determined for each tested compounds.
(§6) A parallel incubation was performed using denatured microsomes as the negative control, and reactions were terminated at various time points (0, 15, 60 min) after incubation at 37° C.
(§7) Dextromethorphan (70 μM) was selected as the positive control, and reactions were terminated at various time points (0, 5, 10, 15, 30, 60 min) after incubation at 37° C. Both positive and negative control samples were included in each assay to ensure the integrity of the microsomal incubation system.
(§8) The concentrations of compounds in human or rat liver microsome incubations were plotted as a percentage of the relevant zero time point control for each reaction. The in vivo CLint were extrapolated (ref.: Naritomi, Y.; Terashita, S.; Kimura, S.; Suzuki, A.; Kagayama, A.; and Sugiyama, Y.; Prediction of human hepatic clearance from in vivo animal experiments and in vitro metabolic studies with liver microsomes from animals and humans. Drug Metab. Dispos., 2001, 29: 1316-1324).

Data set [2] is described as follows: Compound stability in rat liver microsomes. The settings on record: for CLint scaled at 5 μM: liver microsomes, pH 7.4, in vivo CLint extrapolated from rat liver microsome incubation; for half-life at 5 μM: rat liver microsomes 0.5 mg protein/mL, compound 5 μM, NADPH 1.0 mM, pH 7.4, 37° C., read-out: Rat T1/2. The class given is in vitro ADME. The procedure:
as §1, §2, §3, §4, §5, §6, §7, §8

Data set [3] in a line: Pharmacokinetics after intravenous and oral administration in rats. Conditions: for Clearance (CL) after iv dosing / AUC(0-t) / half-life / Vd: dose 1 mg/kg (Ex. 9: 0.6, Ex. 18: 0.5, Ex. 50: 0.96 mg/kg), iv dosing; for AUC(0-t) / half-life / Vd / bioavailability: rat, plasma; for Vd: read-out: Vss; for bioavailability: oral (generally 5 or 10 mg/kg) versus iv dosing, read-out: F (oral bioavailability). Format: in vivo. Here is the method:
as §1, §2, §3
The compounds disclosed herein are assessed in pharmacokinetic studies in mice, rats, dogs or monkeys. The compounds are administered as a water solution, 2% HPMC+1% TWEEN®80 in water solution, 5% DMSO+5% solutol in saline, 4% MC suspension or capsule. For the intravenous administration, the animals are generally given at about 0.5, 0.6, 1 or 2 mg/kg dose. For the oral (p.o.) dosing, mice and rats are generally given 5 or 10 mg/kg dose, and dogs and monkeys are generally given 10 mg/kg dose. The blood samples (0.3 mL) are drawn at 0.25, 0.5, 1.0, 2.0, 3.0, 4.0, 6.0, 8.0, 12 and 24 h time points or 0.083, 0.25, 0.5, 1.0, 2.0, 4.0, 6.0, 8.0 and 24 h time points and centrifuged at 3,000 or 4000 rpm for 2 to 10 min. The plasma solutions are collected, and stored at […] until analyzed by LC/MS/MS as described above.

Consider 13 compounds from patent US10683297B2 (Sunshine Lake Pharma Co., Ltd., priority 2017, dated 2020).

The structures appear in SMILES notation.

What is called CLint scaled is the capacity of the preparation to metabolise the compound, expressed as a volume cleared per time. Usually AUC(0-t) stands for exposure summed from dosing to a finite time, without extrapolation to infinity. Broadly, the bioavailability is dose-corrected exposure relative to a reference, in per cent.

With `N#Cc1ccc(N2CCC(Nc3nc(Nc4ccn5ccnc5c4)ncc3Cl)CC2)nn1` [Example 4, 6-(4-((5-chloro-2-(imidazo[1,2-a]pyridin-7-ylamino)pyrimidin-4-yl)amino)piperidin-1-yl)pyridazine-3-carbonitrile], in data set [1], the half-life at 5 μM amounted to 22.3 min and the CLint scaled at 5 μM is 78.1 mL/min/kg. Further, in data set [2], the CLint scaled at 5 μM is 75.4 mL/min/kg and the half-life at 5 μM worked out at 32.9 min. In data set [3], the “Clearance (CL) after iv dosing” value stood at 19 mL/min/kg, the area under the curve AUC(0-t) was determined as 909 ng·h/mL, the half-life was 43.8 min and the Vd was found to be 1.05 L/kg. Moreover, the bioavailability in data set [3] amounted to 35.1%.

For the compound `CCC1CN(c2ccc(C#N)cn2)CCC1Nc1nc(Nc2ccn3cnnc3c2)ncc1Cl` (stereo not shown) [Example 5, 6-(4-((2-([1,2,4]triazolo[4,3-a]pyridin-7-ylamino)-5-chloropyrimidin-4-yl)amino)-3-ethylpiperidin-1-yl)nicotinonitrile], in data set [3], the “Clearance (CL) after iv dosing” value was found to be 7.17 mL/min/kg, the AUC(0-t) was 2340 ng·h/mL, the half-life is 265 min and the Vd amounted to 0.56 L/kg. The bioavailability in data set [3] stood at 42.7%.

Turning to `CCC1CN(c2ccc(C#N)cn2)CCC1Nc1nc(Nc2ccn3ccnc3c2)ncc1Cl` (stereo not shown) [Example 6, 6-(4-((5-chloro-2-(imidazo[1,2-a]pyridin-7-ylamino)pyrimidin-4-yl)amino)-3-ethylpiperidin-1-yl)nicotinonitrile], in data set [3], the “Clearance (CL) after iv dosing” value worked out at 6.33 mL/min/kg, the exposure AUC(0-t) was 2690 ng·h/mL, the half-life was 283 min and the Vd amounted to 0.76 L/kg. Further, the bioavailability in data set [3] worked out at 71%.

As for `CCC1CN(c2ccc(C#N)nn2)CCC1Nc1nc(Nc2ccn3cnnc3c2)ncc1Cl` (stereo not shown) [Example 7, 6-(4-((2-([1,2,4]triazolo[4,3-a]pyridin-7-ylamino)-5-chloropyrimidin-4-yl)amino)-3-ethylpiperidin-1-yl)pyridazine-3-carbonitrile], in data set [1], the half-life at 5 μM came out at 148 min and the intrinsic metabolic clearance (CLint scaled) at 5 μM is 11.7 mL/min/kg. For the same compound, in data set [2], the CLint scaled at 5 μM was 112 mL/min/kg and the half-life at 5 μM was 22.2 min.

As to `CN(c1nc(Nc2ccc3ncnn3c2)ncc1Cl)C1CCN(c2ccc(C#N)cn2)CC1` [Example 9, 6-(4-((2-([1,2,4]triazolo[1,5-a]pyridin-6-ylamino)-5-chloropyrimidin-4-yl) (methyl)amino)piperidin-1-yl)nicotinonitrile], in data set [1], the half-life at 5 μM came to 71.9 min and the CLint scaled at 5 μM was 24.2 mL/min/kg. Also, in data set [2], the intrinsic metabolic clearance (CLint scaled) at 5 μM was 303 mL/min/kg and the half-life at 5 μM was determined as 8.21 min. Also, in data set [3], the “Clearance (CL) after iv dosing” value stood at 20.8 mL/min/kg, the AUC(0-t) is 547 ng·h/mL, the half-life is 48.6 min and the Vd amounted to 1.13 L/kg. The bioavailability in data set [3] turned out to be 69.1%.

Take `CCC1CN(c2ccc(C#N)nn2)CCC1N(C)c1nc(Nc2ccn3c(C)cnc3c2)ncc1Cl` (stereo not shown) [Example 11, 6-(4-((5-chloro-2-((3-methylimidazo[1,2-a]pyridin-7-yl)amino)pyrimidin-4-yl)(methyl)amino)-3-ethylpiperidin-1-yl)pyridazine-3-carbonitrile]: in data set [1], the half-life at 5 μM came to 330 min and the intrinsic metabolic clearance (CLint scaled) at 5 μM was 5.26 mL/min/kg. Besides, in data set [2], the intrinsic metabolic clearance (CLint scaled) at 5 μM was 0.34 mL/min/kg and the half-life at 5 μM worked out at 5050 min.

Consider `CCC1CN(c2ccc(C#N)nn2)CCC1Nc1nc(Nc2ccn3c(C4CC4)cnc3c2)ncc1Cl` (stereo not shown) [Example 15, 6-(4-((5-chloro-2-((3-cyclopropylimidazo[1,2-a]pyridin-7-yl)amino)pyrimidin-4-yl)amino)-3-ethylpiperidin-1-yl)pyridazine-3-carbonitrile], for which the half-life at 5 μM came to 22 min in data set [1] and 2.98 min in data set [2]. Moreover, the intrinsic clearance (CLint scaled) at 5 μM in data set [1] was 78.9 mL/min/kg; in data set [2], 834 mL/min/kg.

On to `N#Cc1ccc(N2CCC(Nc3nc(Nc4cnn5ccnc5c4)ncc3Cl)CC2)nc1` [Example 18, 6-(4-((5-chloro-2-(imidazo[1,2-b]pyridazin-7-ylamino)pyrimidin-4-yl)amino)piperidin-1-yl)nicotinonitrile], for which, in data set [3], the “Clearance (CL) after iv dosing” value came to 13.2 mL/min/kg, the AUC(0-t) amounted to 638 ng·h/mL, the half-life was 35.4 min and the Vd amounted to 0.5 L/kg. For the same compound, in data set [3], the bioavailability came to 79.4%.

`Cc1cn2c(C)cnc2cc1Nc1ncc(Cl)c(NC2CCN(c3ccc(C#N)nn3)CC2)n1` [Example 22, 6-(4-((5-chloro-2-((3,6-dimethylimidazo[1,2-a]pyridin-7-yl)amino)pyrimidin-4-yl)amino)piperidin-1-yl)pyridazine-3-carbonitrile]: in data set [1], the half-life at 5 μM is 388 min and the intrinsic metabolic clearance (CLint scaled) at 5 μM was 4.5 mL/min/kg. Also, in data set [2], the intrinsic metabolic clearance (CLint scaled) at 5 μM is 11.7 mL/min/kg and the half-life at 5 μM was 213 min.

For the compound `Cc1cnc2cc(Nc3ncc(Cl)c(NC4CCN(c5ccc(C#N)cn5)CC4)n3)ccn12` [Example 23, 6-(4-((5-chloro-2-((3-methylimidazo[1,2-a]pyridin-7-yl)amino)pyrimidin-4-yl)amino)piperidin-1-yl)nicotinonitrile], in data set [3], the “Clearance (CL) after iv dosing” value worked out at 19.7 mL/min/kg, the area under the curve AUC(0-t) worked out at 844 ng·h/mL, the half-life was 63 min and the Vd stood at 1.68 L/kg. Moreover, the bioavailability in data set [3] amounted to 63%.

Regarding `Cc1cn2ncc(Nc3ncc(Cl)c(NC4CCN(c5ccc(C#N)cn5)CC4)n3)cc2n1` [Example 37, 6-(4-((5-chloro-2-((2-methylimidazo[1,2-b]pyridazin-7-yl)amino)pyrimidin-4-yl)amino)piperidin-1-yl)nicotinonitrile], in data set [3], the “Clearance (CL) after iv dosing” value turned out to be 11.5 mL/min/kg, the area under the curve AUC(0-t) was 1460 ng·h/mL, the half-life was 55.8 min and the Vd worked out at 0.83 L/kg. Further, the bioavailability in data set [3] was 47.8%.

Regarding `CCC1CN(c2ccc(C#N)cn2)CCC1Nc1nc(Nc2ccn3c(C(C)(C)O)nnc3c2)ncc1Cl` (stereo not shown) [Example 41], in data set [1], the half-life at 5 μM is 198 min and the CLint scaled at 5 μM was 8.8 mL/min/kg. Moreover, in data set [2], the CLint scaled at 5 μM was 57.9 mL/min/kg and the half-life at 5 μM worked out at 42.9 min.

For the compound `CC(O)Cn1cnc2ncc(Nc3ncc(Cl)c(NC4CCN(c5ccc(C#N)cn5)CC4)n3)cc21` (stereo not shown) [Example 51, 6-(4-((5-chloro-2-((1-(2-hydroxypropyl)-1H-imidazo[4,5-b]pyridin-6-yl)amino)pyrimidin-4-yl)amino)piperidin-1-yl)nicotinonitrile], in data set [1], the half-life at 5 μM was 31.6 min and the CLint scaled at 5 μM is 54.9 mL/min/kg. Moreover, in data set [2], the CLint scaled at 5 μM is 73.1 mL/min/kg and the half-life at 5 μM was found to be 34 min.
